In PMC5218480 (PLoS ONE, 2017):

Tested on: MV-4-11 cells
Assay: Gene expression microarray analysis (Affymetrix PrimeView) and GSEA
Type: cell-based, human
Set-up: RFU PODN (11730768_x_at) / Fold change /veh PODN (11730768_x_at) / RFU LINC00158 (11744669_a_at) / Fold change /veh LINC00158 (11744669_a_at) / RFU DUSP10 (11751237_a_at) / Fold change /veh DUSP10 (11751237_a_at) / RFU ID3 (11757404_x_at) / Fold change /veh ID3 (11757404_x_at) / RFU PLEKHG5 (11737974_s_at) / Fold change /veh PLEKHG5 (11737974_s_at) / RFU LRRC4B (11730491_at) / Fold change /veh LRRC4B (11730491_at) / RFU GIMAP4 (11747438_a_at) / Fold change /veh GIMAP4 (11747438_a_at) / RFU KRT8 (11758183_x_at) / Fold change /veh KRT8 (11758183_x_at) / RFU CNN1 (11734310_a_at) / Fold change /veh CNN1 (11734310_a_at) / RFU VPS37D (11726825_at) / Fold change /veh VPS37D (11726825_at) / RFU C10orf10 (11716522_x_at) / Fold change /veh C10orf10 (11716522_x_at) / RFU KIR2DL2 /// KIR2DL4 /// KIR2DL5A /// KIR2DL5B /// KIR2DS1 /// KIR2DS2 /// KIR2DS3 /// KIR2DS4 /// KIR3DL3 /// KIR3DL3 /// KIR3DS1 (11738374_at) / Fold change /veh KIR2DL2 /// KIR2DL4 /// KIR2DL5A /// KIR2DL5B /// KIR2DS1 /// KIR2DS2 /// KIR2DS3 /// KIR2DS4 /// KIR3DL3 /// KIR3DL3 /// KIR3DS1 (11738374_at) / RFU C1QL1 (11718748_at) / Fold change /veh C1QL1 (11718748_at) / RFU TMPRSS4 (11747572_a_at) / Fold change /veh TMPRSS4 (11747572_a_at) / RFU HAMP (11756126_x_at) / Fold change /veh HAMP (11756126_x_at) / RFU RNFT2 (11725882_a_at) / Fold change /veh RNFT2 (11725882_a_at) / RFU NR4A2 (11747474_a_at) / Fold change /veh NR4A2 (11747474_a_at) / RFU ABCC12 (11746883_a_at) / Fold change /veh ABCC12 (11746883_a_at) / RFU TMEM136 (11760407_x_at) / Fold change /veh TMEM136 (11760407_x_at) / RFU CLDN22 /// WWC2 (11732394_at) / Fold change /veh CLDN22 /// WWC2 (11732394_at) / RFU HLA-DPB1 (11760878_x_at) / Fold change /veh HLA-DPB1 (11760878_x_at) / RFU SPINT1 (11716480_a_at) / Fold change /veh SPINT1 (11716480_a_at) / RFU GAP43 (11754022_s_at) / Fold change /veh GAP43 (11754022_s_at) / RFU A4GNT (11735810_at) / Fold change /veh A4GNT (11735810_at) / RFU PRB3 (11715151_x_at) / Fold change /veh PRB3 (11715151_x_at) / RFU TUBB4B (11761932_at) / Fold change /veh TUBB4B (11761932_at) / RFU CAPN14 (11732068_a_at) / Fold change /veh CAPN14 (11732068_a_at) / RFU TMCC2 (11721928_a_at) / Fold change /veh TMCC2 (11721928_a_at) / RFU IRGQ (11745062_a_at) / Fold change /veh IRGQ (11745062_a_at) / RFU FAM174B (11720279_a_at) / Fold change /veh FAM174B (11720279_a_at) / RFU TMPRSS4 (11748680_a_at) / Fold change /veh TMPRSS4 (11748680_a_at) / RFU FAM212B (11763350_a_at) / Fold change /veh FAM212B (11763350_a_at) / RFU PLEKHG5 (11743358_a_at) / Fold change /veh PLEKHG5 (11743358_a_at) / RFU ZSCAN30 (11745921_a_at) / Fold change /veh ZSCAN30 (11745921_a_at) / RFU CMKLR1 (11741424_a_at) / Fold change /veh CMKLR1 (11741424_a_at) / RFU LOC101060620 /// MAPK8IP1 (11723275_at) / Fold change /veh LOC101060620 /// MAPK8IP1 (11723275_at) / RFU SPTSSB (11747773_x_at) / Fold change /veh SPTSSB (11747773_x_at) / RFU PRSS12 (11739890_at) / Fold change /veh PRSS12 (11739890_at) / RFU BIN1 (11741810_x_at) / Fold change /veh BIN1 (11741810_x_at) / RFU WNT11 (11732464_a_at) / Fold change /veh WNT11 (11732464_a_at) / RFU C10orf10 (11716521_a_at) / Fold change /veh C10orf10 (11716521_a_at) / RFU C5orf56 (11738089_at) / Fold change /veh C5orf56 (11738089_at) / RFU CYB561 (11721691_x_at) / Fold change /veh CYB561 (11721691_x_at) / RFU ANKRD19P (11752326_a_at) / Fold change /veh ANKRD19P (11752326_a_at) / RFU OR2T12 /// OR2T33 /// OR2T8 (11738714_s_at) / Fold change /veh OR2T12 /// OR2T33 /// OR2T8 (11738714_s_at) / RFU VCAN (11748164_a_at) / Fold change /veh VCAN (11748164_a_at) / RFU JSRP1 (11732532_at) / Fold change /veh JSRP1 (11732532_at) / RFU KRTAP10-11 (11738290_x_at) / Fold change /veh KRTAP10-11 (11738290_x_at) / RFU MYO3A (11730013_a_at) / Fold change /veh MYO3A (11730013_a_at) / RFU EBF3 (11725865_a_at) / Fold change /veh EBF3 (11725865_a_at) / RFU CAMK2N1 (11719241_x_at) / Fold change /veh CAMK2N1 (11719241_x_at) / RFU C5orf56 (11738088_a_at) / Fold change /veh C5orf56 (11738088_a_at) / RFU OLFML3 (11715873_a_at) / Fold change /veh OLFML3 (11715873_a_at) / RFU LOC100653217 /// NTM (11731650_a_at) / Fold change /veh LOC100653217 /// NTM (11731650_a_at) / RFU MAPK11 (11762145_a_at) / Fold change /veh MAPK11 (11762145_a_at) / RFU FIZ1 (11724087_x_at) / Fold change /veh FIZ1 (11724087_x_at) / RFU OASL (11726364_x_at) / Fold change /veh OASL (11726364_x_at) / RFU SOX15 (11748057_x_at) / Fold change /veh SOX15 (11748057_x_at) / RFU CD79A (11719716_a_at) / Fold change /veh CD79A (11719716_a_at) / RFU HIST1H1D (11736915_at) / Fold change /veh HIST1H1D (11736915_at) / RFU CASKIN2 (11723855_a_at) / Fold change /veh CASKIN2 (11723855_a_at) / RFU LOC730098 (11760151_x_at) / Fold change /veh LOC730098 (11760151_x_at) / RFU OR4N2 (11742367_at) / Fold change /veh OR4N2 (11742367_at) / RFU PRRT2 (11749266_a_at) / Fold change /veh PRRT2 (11749266_a_at) / RFU SNX32 (11753110_a_at) / Fold change /veh SNX32 (11753110_a_at) / RFU CDHR5 (11726645_a_at) / Fold change /veh CDHR5 (11726645_a_at) / RFU RCAN1 (11760418_a_at) / Fold change /veh RCAN1 (11760418_a_at) / RFU FAM167A (11723789_a_at) / Fold change /veh FAM167A (11723789_a_at) / RFU FAM26E (11764081_at) / Fold change /veh FAM26E (11764081_at) / RFU ISYNA1 (11749810_s_at) / Fold change /veh ISYNA1 (11749810_s_at) / RFU ACY1 (11761880_at) / Fold change /veh ACY1 (11761880_at) / RFU 11764098_at / Fold change /veh 11764098_at / RFU SAMD14 (11745864_x_at) / Fold change /veh SAMD14 (11745864_x_at) / RFU NPB (11741838_a_at) / Fold change /veh NPB (11741838_a_at) / RFU TMPRSS6 (11731388_a_at) / Fold change /veh TMPRSS6 (11731388_a_at) / RFU KRTAP10-2 (11738614_at) / Fold change /veh KRTAP10-2 (11738614_at) / RFU ARHGAP8 /// PRR5-ARHGAP8 (11727945_x_at) / Fold change /veh ARHGAP8 /// PRR5-ARHGAP8 (11727945_x_at) / RFU KRTAP5-7 /// NADSYN1 (11734609_at) / Fold change /veh KRTAP5-7 /// NADSYN1 (11734609_at) / RFU RASL12 (11751679_a_at) / Fold change /veh RASL12 (11751679_a_at) / RFU CDKN2B (11736163_a_at) / Fold change /veh CDKN2B (11736163_a_at) / RFU PRF1 (11729649_at) / Fold change /veh PRF1 (11729649_at) / RFU, ZNF638 /// ZNF638-IT1 / Fold change vs veh, ZNF638 /// ZNF638-IT1 / RFU, PANK3 / Fold change vs veh, PANK3 / RFU, SH3YL1 / Fold change vs veh, SH3YL1 / RFU, ZEB2 / Fold change vs veh, ZEB2 / RFU, NRIP1 / Fold change vs veh, NRIP1 / RFU, PTTG1IP / Fold change vs veh, PTTG1IP / RFU, CAPN2 / Fold change vs veh, CAPN2 / RFU, MED14 / Fold change vs veh, MED14 / RFU, SNORA58 / Fold change vs veh, SNORA58 / RFU, C1orf63 / Fold change vs veh, C1orf63 / RFU, LRRFIP1 / Fold change vs veh, LRRFIP1 / RFU, NDUFAF7 / Fold change vs veh, NDUFAF7 / RFU, SLC12A2 / Fold change vs veh, SLC12A2 / RFU, IBTK / Fold change vs veh, IBTK / RFU, ESF1 / Fold change vs veh, ESF1 / Fold change vs veh, TMEM50B / RFU, TAOK1 / Fold change vs veh, TAOK1 / RFU, ACBD3 / Fold change vs veh, ACBD3 / RFU, TMA16 / Fold change vs veh, TMA16 / RFU, RWDD3 / Fold change vs veh, RWDD3 / RFU, BCAT1 / Fold change vs veh, BCAT1 / RFU, EDEM3 / Fold change vs veh, EDEM3 / RFU, TMEM33 / Fold change vs veh, TMEM33 / RFU, WDR75 / Fold change vs veh, WDR75 / RFU, AHCTF1 / Fold change vs veh, AHCTF1 / RFU, TFRC / Fold change vs veh, TFRC / RFU, ZDHHC17 / Fold change vs veh, ZDHHC17 / RFU, NOM1 / Fold change vs veh, NOM1 / RFU, ARL8B / Fold change vs veh, ARL8B / RFU, ZBTB11 / Fold change vs veh, ZBTB11 / RFU, TAMM41 / Fold change vs veh, TAMM41 / RFU, KIAA1704 /// LOC100996395 / Fold change vs veh, KIAA1704 /// LOC100996395 / RFU, ING1 / Fold change vs veh, ING1 / RFU, TRMT61B / Fold change vs veh, TRMT61B / RFU, FUBP3 / Fold change vs veh, FUBP3 / RFU, TP53 / Fold change vs veh, TP53 / RFU, TNKS2 / Fold change vs veh, TNKS2 / RFU, ZFP14 / Fold change vs veh, ZFP14 / RFU, ACTR2 / Fold change vs veh, ACTR2 / RFU, PPP3R1 / Fold change vs veh, PPP3R1 / RFU, PIK3R1 / Fold change vs veh, PIK3R1 / RFU, HNRNPA1 / Fold change vs veh, HNRNPA1 / RFU, RNF170 / Fold change vs veh, RNF170 / RFU, ZNF28 / Fold change vs veh, ZNF28 / RFU, RNGTT / Fold change vs veh, RNGTT / RFU, OGT / Fold change vs veh, OGT / RFU, BRD1 / Fold change vs veh, BRD1 / RFU, MARS / Fold change vs veh, MARS / RFU, ZNF655 / Fold change vs veh, ZNF655 / RFU, FAHD1 / Fold change vs veh, FAHD1 / RFU, BDP1 / Fold change vs veh, BDP1 / RFU, LRRCC1 / Fold change vs veh, LRRCC1 / RFU, ARID1A / Fold change vs veh, ARID1A / RFU, ZNF146 / Fold change vs veh, ZNF146 / RFU, ZNF330 / Fold change vs veh, ZNF330 / RFU, GPN3 / Fold change vs veh, GPN3 / RFU, C9orf123 / Fold change vs veh, C9orf123 / RFU, N4BP2L2 / Fold change vs veh, N4BP2L2 / RFU, ARFIP1 / Fold change vs veh, ARFIP1 / RFU, FAM179B / Fold change vs veh, FAM179B / RFU, BCL10 / Fold change vs veh, BCL10 / RFU, UHRF1BP1L / Fold change vs veh, UHRF1BP1L / RFU, BET1 / Fold change vs veh, BET1 / RFU, CNOT2 / Fold change vs veh, CNOT2 / RFU, ZNF268 / Fold change vs veh, ZNF268 / Fold change vs veh, ZNF507 / RFU, DGCR2 / Fold change vs veh, DGCR2 / RFU, WDSUB1 / Fold change vs veh, WDSUB1 / Fold change vs veh, HSP90B1 /// MIR3652 / RFU, ADSS / Fold change vs veh, ADSS / RFU, GK / Fold change vs veh, GK / RFU, ZNF148 / Fold change vs veh, ZNF148 / RFU, TAF9 / Fold change vs veh, TAF9 / RFU, SLC1A5 / Fold change vs veh, SLC1A5 / RFU, SLMO2 / Fold change vs veh, SLMO2 / RFU, ABCC4 / Fold change vs veh, ABCC4 / RFU, LOC101060439 /// RAP1B / Fold change vs veh, LOC101060439 /// RAP1B / RFU, RFX7 / Fold change vs veh, RFX7 / RFU, GTPBP10 / Fold change vs veh, GTPBP10 / RFU, CNEP1R1 / Fold change vs veh, CNEP1R1 / RFU, BIVM-ERCC5 /// ERCC5 / Fold change vs veh, BIVM-ERCC5 /// ERCC5 / RFU, ILF3 / Fold change vs veh, ILF3 / RFU 11762660_at / Fold change /veh 11762660_at / RFU VCAN (11757783_s_at) / Fold change /veh VCAN (11757783_s_at) / RFU DDX43 (11728927_at) / Fold change /veh DDX43 (11728927_at) / RFU KRT8 (11758188_x_at) / Fold change /veh KRT8 (11758188_x_at) / RFU NKD1 (11759106_at) / Fold change /veh NKD1 (11759106_at) / RFU SRD5A1 (11742802_a_at) / Fold change /veh SRD5A1 (11742802_a_at) / RFU TPSAB1 /// TPSB2 (11721975_s_at) / Fold change /veh TPSAB1 /// TPSB2 (11721975_s_at) / RFU GSTM3 (11746129_a_at) / Fold change /veh GSTM3 (11746129_a_at) / RFU IL23R (11737362_x_at) / Fold change /veh IL23R (11737362_x_at) / RFU TMEM51 (11727254_a_at) / Fold change /veh TMEM51 (11727254_a_at) / RFU PIWIL2 (11732686_x_at) / Fold change /veh PIWIL2 (11732686_x_at) / RFU ORM1 (11744905_x_at) / Fold change /veh ORM1 (11744905_x_at) / RFU CCDC152 (11743942_at) / Fold change /veh CCDC152 (11743942_at) / RFU ECM1 (11717891_a_at) / Fold change /veh ECM1 (11717891_a_at) / RFU IL23R (11748794_a_at) / Fold change /veh IL23R (11748794_a_at) / RFU TNFAIP8L3 (11732012_x_at) / Fold change /veh TNFAIP8L3 (11732012_x_at) / RFU MBOAT4 (11741988_at) / Fold change /veh MBOAT4 (11741988_at) / RFU 11764193_at / Fold change /veh 11764193_at / RFU TMEM53 (11763286_at) / Fold change /veh TMEM53 (11763286_at) / RFU MAGEB2 (11727129_at) / Fold change /veh MAGEB2 (11727129_at) / RFU TMEM200A (11744735_a_at) / Fold change /veh TMEM200A (11744735_a_at) / RFU CCDC152 (11751479_a_at) / Fold change /veh CCDC152 (11751479_a_at) / RFU FAM211A (11726209_a_at) / Fold change /veh FAM211A (11726209_a_at) / RFU RGS16 (11746705_a_at) / Fold change /veh RGS16 (11746705_a_at) / RFU VCAN (11755009_s_at) / Fold change /veh VCAN (11755009_s_at) / RFU RHOB (11743442_s_at) / Fold change /veh RHOB (11743442_s_at) / RFU RGS16 (11720943_a_at) / Fold change /veh RGS16 (11720943_a_at) / RFU RGS16 (11720944_at) / Fold change /veh RGS16 (11720944_at) / RFU, VPS4B / Fold change vs veh, VPS4B / RFU, CREB1 / Fold change vs veh, CREB1 / RFU, DNAJC13 / Fold change vs veh, DNAJC13 / RFU, GNAQ / Fold change vs veh, GNAQ / RFU, CDK5R1 / Fold change vs veh, CDK5R1 / RFU, ZRANB3 / Fold change vs veh, ZRANB3 / RFU, CUL4A / Fold change vs veh, CUL4A / RFU, CCNY / Fold change vs veh, CCNY / RFU, UFL1 / Fold change vs veh, UFL1 / RFU, COG3 / Fold change vs veh, COG3 / RFU, DIAPH2 / Fold change vs veh, DIAPH2 / RFU, SKA2 / Fold change vs veh, SKA2 / RFU, AFF3 / Fold change vs veh, AFF3 / RFU, LMF1 / Fold change vs veh, LMF1 / RFU, IPO11 / Fold change vs veh, IPO11 / RFU, DFFB / Fold change vs veh, DFFB / RFU, FOXP1 / Fold change vs veh, FOXP1 / RFU, CARD8 / Fold change vs veh, CARD8 / RFU, STRN3 / Fold change vs veh, STRN3 / RFU, ADK / Fold change vs veh, ADK / RFU, RASSF2 / Fold change vs veh, RASSF2 / RFU, WIPF1 / Fold change vs veh, WIPF1 / RFU, LARP1B / Fold change vs veh, LARP1B / RFU, RASA1 / Fold change vs veh, RASA1 / RFU, RB1 / Fold change vs veh, RB1 / RFU, PPFIA1 / Fold change vs veh, PPFIA1 / RFU, MAT2A / Fold change vs veh, MAT2A / RFU, CCT5 / Fold change vs veh, CCT5 / RFU, WDR92 / Fold change vs veh, WDR92 / RFU, CUX1 / Fold change vs veh, CUX1 / RFU, TTC7A / Fold change vs veh, TTC7A / RFU, TMEM135 / Fold change vs veh, TMEM135 / RFU, DEPTOR / Fold change vs veh, DEPTOR / RFU, CPM / Fold change vs veh, CPM / RFU, DNAJB6 / Fold change vs veh, DNAJB6 / RFU, CACNA2D3 / Fold change vs veh, CACNA2D3 / RFU, DTX4 / Fold change vs veh, DTX4 / RFU, TFCP2 / Fold change vs veh, TFCP2 / RFU, GMCL1 /// GMCL1P1 / Fold change vs veh, GMCL1 /// GMCL1P1 / RFU, AEBP2 / Fold change vs veh, AEBP2 / RFU, SNHG1 /// SNORD22 /// SNORD25 /// SNORD26 /// SNORD27 /// SNORD28 /// SNORD29 /// SNORD31 / Fold change vs veh, SNHG1 /// SNORD22 /// SNORD25 /// SNORD26 /// SNORD27 /// SNORD28 /// SNORD29 /// SNORD31 / Fold change (Aza/veh), C12orf56 (ProbeSet 11735607_a_at) / Fold change (ACY-1035/veh), C12orf56 (ProbeSet 11735607_a_at) / Fold change (Aza/veh), FGFR1OP (ProbeSet 11751329_s_at) / Fold change (ACY-1035/veh), FGFR1OP (ProbeSet 11751329_s_at) / Fold change (Aza/veh), VPS36 (ProbeSet 11739960_a_at) / Fold change (ACY-1035/veh), VPS36 (ProbeSet 11739960_a_at) / RFU SYPL1 (11715823_x_at) / Fold change /veh SYPL1 (11715823_x_at) / RFU IGFBP7 (11715501_s_at) / Fold change /veh IGFBP7 (11715501_s_at) / RFU REEP3 (11722064_at) / Fold change /veh REEP3 (11722064_at) / RFU IGLL1 (11728026_x_at) / Fold change /veh IGLL1 (11728026_x_at): dose or concentration left out as unconfirmed
Settings: ProbeSet 11753623_s_at; LIST D

Nc1ccc(-c2cccs2)cc1NC(=O)c1ccc2c(c1)cc(C1CC1)n2CCN1CCOCC1 [ACY-1035]
RFU, LOC101060439 /// RAP1B: 312.98 RFU
